The values below come from ChEMBL document CHEMBL5038650, “In Vitro and In Vivo Inhibition of the Mycobacterium tuberculosis Phosphopantetheinyl Transferase PptT by Amidinoureas” (J Med Chem, 2022).

The structures appear in SMILES notation. pIC50: −log10 of the molar value. Bounds are passed on as bounds.

The term pIC50 denotes the negative decadic logarithm of the IC50, by convention in mol/L. Low readings indicate a high IC50, high ones a low IC50.

The target of the test is Voltage-gated inwardly rectifying potassium channel KCNH2 (Homo sapiens, UniProt Q12809).
Sequence of Voltage-gated inwardly rectifying potassium channel KCNH2 (Q12809 whole entry): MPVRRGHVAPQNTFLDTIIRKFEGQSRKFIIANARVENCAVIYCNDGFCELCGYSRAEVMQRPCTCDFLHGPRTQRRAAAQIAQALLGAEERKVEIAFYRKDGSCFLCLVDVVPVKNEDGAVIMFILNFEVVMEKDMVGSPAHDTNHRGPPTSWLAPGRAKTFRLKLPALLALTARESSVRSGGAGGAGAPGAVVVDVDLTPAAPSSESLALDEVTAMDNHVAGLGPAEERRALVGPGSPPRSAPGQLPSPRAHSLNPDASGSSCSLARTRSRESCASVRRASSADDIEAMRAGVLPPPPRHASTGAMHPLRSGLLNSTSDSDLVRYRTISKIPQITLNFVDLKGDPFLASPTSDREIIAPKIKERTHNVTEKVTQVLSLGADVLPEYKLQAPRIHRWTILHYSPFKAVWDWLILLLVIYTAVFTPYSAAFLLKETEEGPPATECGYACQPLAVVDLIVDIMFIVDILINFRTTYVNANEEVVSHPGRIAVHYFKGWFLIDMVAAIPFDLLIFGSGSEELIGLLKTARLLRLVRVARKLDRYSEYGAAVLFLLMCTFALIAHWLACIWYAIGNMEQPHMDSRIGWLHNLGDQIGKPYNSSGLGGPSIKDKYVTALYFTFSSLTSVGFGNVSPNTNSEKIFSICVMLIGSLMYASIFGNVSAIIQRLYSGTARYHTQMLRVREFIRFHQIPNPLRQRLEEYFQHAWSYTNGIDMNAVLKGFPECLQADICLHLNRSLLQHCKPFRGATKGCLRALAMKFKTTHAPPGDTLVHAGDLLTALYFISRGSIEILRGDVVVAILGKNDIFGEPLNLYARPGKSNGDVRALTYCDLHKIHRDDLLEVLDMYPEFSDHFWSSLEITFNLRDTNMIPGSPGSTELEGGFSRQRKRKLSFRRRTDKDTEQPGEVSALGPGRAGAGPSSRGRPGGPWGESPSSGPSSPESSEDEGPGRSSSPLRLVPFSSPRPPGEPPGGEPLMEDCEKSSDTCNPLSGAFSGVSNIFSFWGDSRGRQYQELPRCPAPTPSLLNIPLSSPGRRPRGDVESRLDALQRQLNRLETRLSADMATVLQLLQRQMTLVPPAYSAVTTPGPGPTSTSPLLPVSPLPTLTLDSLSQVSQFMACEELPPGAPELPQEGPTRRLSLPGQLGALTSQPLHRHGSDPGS
Description: Inhibition of hERG expressed in HEK cells by patch clamp method
`CCNC(=N)NC(=O)Nc1c(CC)cc(C(=O)NCc2ccccc2)cc1CC` gave a pIC50 of less than 4.52.

`CCNC(=N)NC(=O)Nc1c(CC)cc(NS(=O)(=O)c2ccccc2)cc1CC` had a pIC50 of less than 4.52. Regarding `CCNC(=N)NC(=O)Nc1c(CC)cc(S(=O)(=O)NCC)cc1CC`, the pIC50 was less than 4.52. In turn, `CCNC(=N)NC(=O)Nc1c(CC)cc(C(=O)NC(C)C)cc1CC` gave a pIC50 of less than 4.52.
